Laboratory results: patent US20150164907A1, “COMPOSITIONS AND METHODS FOR TREATING DISEASE” (ANGION BIOMEDICA CORP., priority 2013, published 2015)
Like-named read-outs stand apart in the source and are kept apart here.

System: SK-BR-3 breast cancer cells
Test: Proliferation of SK-BR-3 breast cancer cells, checkerboard design, Cell Titer Glo after 7 days
Assay type: cell-based
Details: for IC50: Homo sapiens
Description: The effect of ATRA in combination with GDC-0941 or NVP-BEZ235 on the proliferation of SK-BR-3 breast cancer cells was evaluated. […] To test the combination of ATRA and PI3Km/TOR inhibitors, cells were plated in a 96-well plate and treated with compounds in a “checkerboard” design. After 7 days the cell proliferation was determined using the Cell Titer Glo reagent (Promega). […] The bliss additivity model predicts the shape of the curve and magnitude of growth inhibition if the effects of two compounds is additive.
Another method to determine the interaction between two compounds is the combination index (CI) method, which can be calculated by the computer program Calcusyn.

[1] = SK-BR-3, 168 h, in the absence of ATRA, 7 days, read-out: estimated IC50, proliferation of SK-BR-3 growth
[2] = SK-BR-3, 168 h, in the presence of 10 nM ATRA, 7 days, read-out: IC50, proliferation of SK-BR-3 cells

IC50 (SK-BR-3, ATRA alone, read-out: estimated IC50, proliferation of SK-BR-3 cells)	IC50 [1]	IC50 [2]	SMILES	inhibition of cell proliferation by ATRA by itself (10 nM ATRA alone)
40 nM	–	–	CC1=C(/C=C/C(C)=C/C=C/C(C)=C/C(=O)O)C(C)(C)CCC1 [ATRA, all-trans retinoic acid]	only mildly inhibited cell proliferation
–	126 nM	35 nM	CS(=O)(=O)N1CCN(Cc2cc3nc(-c4cccc5[nH]ncc45)nc(N4CCOCC4)c3s2)CC1 [GDC-0941, 2-(1H-indazol-4-yl)-6-(4-methanesulfonyl-piperazin-1-ylmethyl)-4-morpholin-4-yl-thieno[3,2-d]pyrimidine]	–
–	145 nM	57 nM	Cn1c(=O)n(-c2ccc(C(C)(C)C#N)cc2)c2c3cc(-c4cnc5ccccc5c4)ccc3ncc21 [NVP-BEZ235]	–
